According to patent US20230250127A1, “MODIFIED mRNA 5'-CAP ANALOGS” (Nanjing GeneLeap Biotechnology Co., Ltd., priority 2021, published 2023):
“Also recorded” adds a separate entry of the source.

Experiments:
[1] = test system: HeLa cells; test: Fluc mRNA carrying 5′-cap analogs, translation in HeLa cells (luciferase luminescence); assay type: cell-based; settings: for Fluc expression in vitro, summary of FIGS. 7-9: HeLa cells, compared to the control Cleancap AG; for expression levels of Fluc protein by mRNAs containing different 5′caps: HeLa
Procedure: The novel 5′ -caps synthesized were incorporated into Firefly luciferase (Fluc) mRNA using pGL-T7-AG-nUTR002-Fluc-HBB3UTR-30+70A-BpiI (Kana-AGG-BpiI Plasmid Size: 4856bp). Then, the dose responses of the new cap analogs were compared to commercially available Cap analog from Trilink m7G(5′)ppp(5′)(2′OMeA)pG (cat no. N-7113).
Briefly, 1 µg GLuc (AGG plasmid) template per reaction was transcribed in vitro using a High Yield T7 mRNA synthesis kit (NEB, E2040S). Cap analogs were added by co-transcription. Transcription was carried out for 2 hours, followed by DNase I treatment for 15 min. Ratio of NTP to Cap analogs, 10:4 (10 mM NTP each, 4 mM cap).
Expected mRNA length: 2008 nt. Then the small scale IVT mRNAs were purified using DNA Selection Magnetic beads (Yeasen,12601ES56), Large scale IVT mRNAs were purified using POROS™ Oligo (dT)25 (Thermofisher, A47383) and Ultrafiltration use Amicon® Ultra-15(Merk, UFC910024), the RNA was quantitated using Nanodrop, and 500 ng of each mRNA was run on agarose E-Gel, mRNAs were run on a 2100 bioanalyzer or CE (PA800) for checking mRNA integrity, HPLC for Purity, DNAzyme-PAGE for Capping efficiency and polyA quality. Large scale mRNA were subjected to more QC (Capping/polyA tail-LC-MS, Template DNA residual-qPCR, dsRNA-Elisa, pH).
Novel 5 ′-cap structures that were synthesized were incorporated into Firefly luciferase (Fluc) mRNA via IVT as described above and then assessed for translation efficacy in HeLa cells following transfection. Briefly, HeLa cells were seeded in a 96-well plate (20000cells/0.1 ml/well). The next day (approx. ∼80-90% confluent), the cells were transfected with 25, 50, or 100 ng/well of Fluc-mRNA samples using 2 µl/ml of Lipofectamine MessengerMax (Thermo Scientific, cat#LMRNA015) or in-house formulated lipid-nanoparticles (LNPs). The cells were incubated for another 24 h. To monitor the functional (translation) activity of Fluc mRNAs into which different 5′cap analogs have been incorporated, the Fluc protein expression was evaluated by adding 60 µl Bio Lite Luciferase Assay System (Vazyme, cat # DD1201-02) into each well, incubating the plates at room temperature for 10 min, and measuring the luminescence using a multimode plate reader luminometer. All wells were assayed in triplicates. Statistical analysis was performed using two-way ANOVA followed by uncorrected Fisher’s LSD.

[2] = test system: C57BL/6 mice; test: In vivo Fluc expression of capped mRNA-LNPs by in vivo imaging system (IVIS); settings: for expression levels of Fluc protein in liver and muscle (injection site) tissues: Experiment 2, by in vivo imaging system and by ex vivo Luciferase assay, vs Cleancap AG (FIG. 13); for in vivo expression levels of Fluc protein (in vivo imaging system): vs Cleancap AG-mRNA; for Fluc expression in vivo, summary of FIGS. 10-13: mice, intramuscular mRNA-LNPs, compared to Cleancap AG
Procedure: (§1) Female C57BL/6 mice 7-8 weeks of age were randomly allocated to experimental groups, 30 mice per group. For each group, 6 experimental conditions were set up: 2 mRNA doses (0.01, 0.1 mg/kg) and 3 time points 6 h, 24 h, 48 h (5 mice/dose/time point). A single intramuscular injection of mRNA-loaded LNPs was performed (injection volume 40 µl). At 6 h, 24 h and 48 h post-injection, 5 animals/dose in each group were taken for in vivo tissue and organ imaging. The animals were shaved and intraperitoneally injected with 200 µL of a d-luciferin solution (15 mg/mL in DPBS) D-luciferin and anesthetized 8 min later using isoflurane (5% induction, 2% maintenance in pure oxygen). The emitted light was measured by in vivo imaging system (IVIS) exactly 12 min after d-luciferin injection. Whole body supine and lateral position imaging was carried out.
(§2) After Whole body imaging, the animals were euthanized, and the leg muscles (injection site) were harvested in Experiment 1; muscles and livers were harvested in Experiment 2. The emitted light by the tissues/organs was measured by IVIS in less than 25 min after d-luciferin injection.

[3] = test system: C3 tumors; test: C3 Tumor Model, capped HPV E6/E7 mRNA; assay type: in vivo; settings: GL2288 mRNA, mid dose (0.05 mg/Kg), intramuscular Day 0; vs CC
Procedure: As soon as the C3 tumors reached 100 mm^3, our HPV E6/E7 mRNA sequence (GL2281) (wherein the sequence encoding HPV E6-E7 is SEQ ID NO:2), capped with either CleanCap, GL-Cap5 or GL-Cap1, was administered intramuscularly at 10 µg per dose, with the first dose on Day 0 and second dose on Day 10. The PBS and 10 µg of CleanCap-capped Luciferase mRNA (FF luciferase) were used for comparison.
As soon as the C3 tumors reached 100 mm3, our HPV E6/E7 mRNA sequence (GL2288) (wherein the sequence encoding HPV E6-E7 is SEQ ID NO:1), capped with either CleanCap (CC), or GL-Cap7, was administered intramuscularly at different doses at Day 0. The CleanCap-capped Luciferase mRNA (FF Luciferase) was used for comparison.

[4] = test system: C57BL/6 mice; test: Ex vivo Luciferase assay of tissue homogenates after mRNA-LNP injection; assay type: in vivo; settings: Experiment 1, low and high dose regimens, different time points; vs Cleancap AG-mRNA
Procedure: as §1, §2
Next, tissue lysates were prepared by homogenization and Glo Lysis Buffer 1X (Abcam cat # ab6789) treatment. The lysates were centrifuged at 4° C. for 15 min at 10000 g, and the supernatants were used for total protein quantification and luciferase activity assessment. […]

[5] = Experiment 2, single intramuscular dose 0.1 mg/kg, 6 h after injection

Row | SMILES | Fluc expression in vitro, summary of FIGS. 7-9 [1] | expression levels of Fluc protein in liver and muscle (injection site) tissues [2] | in vivo expression levels of Fluc protein (in vivo imaging system) [2, 5] | Fluc expression in vivo, summary of FIGS. 10-13 [2] | anti-tumor efficacy [3] | expression levels of Fluc protein by mRNAs containing different 5′caps ([1]; 24 h, in-house LNP formulation, low doses (FIG. 7B)) | expression levels of Fluc protein by mRNAs containing different 5′caps ([1]; 24 h, in-house LNP formulation, high and medium doses (FIG. 7B)) | expression levels of Fluc protein by mRNAs containing different 5′caps ([1]; 24 h post-transfection, Lipofectamine MessengerMax, different tested doses, vs Cleancap AG (FIG. 7A)) | in vivo expression levels of Fluc protein (in vivo imaging system) ([2]; Experiment 1, single intramuscular dose of mRNA-LNPs, low and high dose regimens, 6 h, 24 h, 48 h) | expression levels of Fluc protein in muscle tissue homogenates (ex vivo Luciferase assay) [4]
1 | C[n+]1cn([C@@H]2O[C@H](COP(=O)([O-])OP(=O)(O)OP(=O)(O)OC[C@]34COC(C3OP(=O)(O)OC[C@H]3O[C@@H](n5cnc6c(=O)[nH]c(N)nc65)C(O)C3O)[C@H](n3cnc5c(N)ncnc53)O4)C(O)C2F)c2nc(N)[nH]c(=O)c21 (some centres unmarked) [GL-Cap7, 7m-2′F-Gppp(locked)ApG] | stronger expression | better; also recorded: highest expression levels | significantly higher Fluc expression levels | significantly stronger expression | higher anti-tumor efficacy than CC |  |  |  |  | 
2 | COCCOC1C(O)[C@@H](COP(=O)([O-])OP(=O)(O)OP(=O)(O)OC[C@]23COC(C2OP(=O)(O)OC[C@H]2O[C@@H](n4cnc5c(=O)[nH]c(N)nc54)C(O)C2O)[C@H](n2cnc4c(N)ncnc42)O3)O[C@H]1n1c[n+](C)c2c(=O)[nH]c(N)nc21 (some centres unmarked) [GL-Cap8, 7m-2-′MOE-Gppp(locked)ApG] |  | better; also recorded: highest expression levels |  |  |  | stronger expression than Cleancap AG (Trilink) |  |  |  | 
3 | C[n+]1cn([C@@H]2O[C@H](COP(=O)([O-])OP(=O)(O)OP(=O)(O)OC[C@]34COC(C3OP(=O)(O)OC[C@H]3O[C@@H](n5cnc6c(=O)[nH]c(N)nc65)C(O)C3O)[C@H](n3cnc5c(N)ncnc53)O4)C(O)C2O)c2nc(N)[nH]c(=O)c21 (some centres unmarked) [GL-Cap5, 7mGppp(locked)ApG] | stronger expression | comparable | significantly higher Fluc expression levels | significantly stronger expression |  |  | significantly higher than all the other tested caps | significantly higher expression level at different tested doses | significantly higher Fluc expression levels; also recorded: the strongest expression level among the tested caps | higher than with Cleancap AG-mRNA
4 | C[n+]1cn([C@@H]2O[C@H](COP(=O)([O-])OP(=O)(O)OP(=O)(O)OC[C@]34COC(C3OP(=O)(O)OC[C@]35COC(C3OP(=O)(O)OC[C@H]3O[C@@H](n6cnc7c(=O)[nH]c(N)nc76)C(O)C3O)[C@H](n3cnc6c(N)ncnc63)O5)[C@H](n3cnc5c(N)ncnc53)O4)C(O)C2O)c2nc(N)[nH]c(=O)c21 (some centres unmarked) [GL-Cap1, 7mGppp(locked)Ap(locked)ApG] |  | better | slightly higher than in the Cleancap AG group, but without statistical significance |  |  |  |  |  |  | 
